# According to patent US20140194353A1, “COMPOSITIONS AND METHODS FOR THE TREATMENT OF NERVOUS DISORDERS ASSOCIATED WITH DIABETES” (Joslin Diabetes Center, Inc., priority 2010, published 2014):
# What was measured:
# [1] = system: cultured neurons; experiment: Pharmacological inhibition of insulin signaling pathways, cholesterol synthetic gene expression; type: cell-based, mouse
# [2] = system: SREBP-2 and its downstream cholesterologenic genes in the hypothalamus; experiment: qPCR of Srebf2 and cholesterologenic genes in hypothalami of STZ-diabetic mice; type: in vivo, mouse
# Procedure: (§1) For STZ-induced diabetes and systemic insulin therapy experiments, 7-week-old C57Bl/6 mice were treated with a single intraperitoneal (i.p.) injection (200 μg/g body weight) of STZ (Sigma). After 2 days, the mice were separated into two groups. Half remained untreated, and the other half were treated with subcutaneous insulin pellets (LinShin, Toronto, Canada) for one week to control blood glucose levels. For phlorizin (PHZ) treatment, 8-week-old C57Bl/6 mice were treated with STZ. PHZ (Sigma) was dissolved in a solution containing 10% ethanol, 15% DMSO, and 75% saline and was injected subcutaneously (0.4 g/kg) twice daily for 10 days starting 8 days after the STZ injection. Control mice were injected with the same volume of vehicle.
# For qPCR, RNA was isolated using an RNeasy kit (Qiagen). As a template, 1 μg (for tissue) or 0.2 μg (for glia and neurons) of total RNA was reverse-transcribed in 50 μl using a High Capacity cDNA Reverse Transcription Kit (Applied Biosystems) according to the manufacturer's instructions. […] Analysis of gene expression was done in the ABI PRISM 7000 sequence detector with an initial denaturation at 95° C. for 10 minutes followed by 40 PCR cycles, each cycle consisting of 95° C. for 15 seconds and 60° C. for 1 minute, and SYBR Green fluorescence emissions were monitored after each cycle. For each gene, mRNA expression was calculated relative to Tbp (mouse) or ribosomal 18S (human) expression as an internal control.
# To determine whether hyperglycemia or insulin insufficiency was predominantly responsible for the above-observed suppression of cholesterol synthesis pathway in the diabetic mouse brain, we treated the STZ-induced diabetic mice with phlorizin (PHZ), a flavonoid which can decrease blood glucose levels by inhibition of renal glucose transport without restoring insulin secretion using the methods disclosed in Example 1. […] Control mice were injected with the same volume of vehicle. mRNA levels were then assessed by qPCR as disclosed in Example 1. […]
# [3] = system: STZ-diabetic mice; experiment: Blood glucose levels in STZ-diabetic mice; type: in vivo, mouse
# Procedure: as §1
# To determine whether hyperglycemia or insulin insufficiency was predominantly responsible for the above-observed suppression of cholesterol synthesis pathway in the diabetic mouse brain, we treated the STZ-induced diabetic mice with phlorizin (PHZ), a flavonoid which can decrease blood glucose levels by inhibition of renal glucose transport without restoring insulin secretion using the methods disclosed in Example 1. Additionally, phlorizin (PHZ) treatment was performed using 8-week-old C57Bl/6 mice previously treated with STZ. […] Control mice were injected with the same volume of vehicle. mRNA levels were then assessed by qPCR as disclosed in Example 1. […]
# [4] = system: Pomc, Agrp, Npy expression; experiment: qPCR of neuropeptides regulating appetite in hypothalamus after insulin ICV injection; type: in vivo, mouse; conditions: STZ-diabetic mice
# Procedure: (§2) For qPCR, RNA was isolated using an RNeasy kit (Qiagen). As a template, 1 μg (for tissue) or 0.2 μg (for glia and neurons) of total RNA was reverse-transcribed in 50 μl using a High Capacity cDNA Reverse Transcription Kit (Applied Biosystems) according to the manufacturer's instructions. Three microliters of diluted (1/4) reverse transcription reaction was amplified with specific primers (300 nM each) in a 25 μl PCR with a SYBR Green PCR Master Mix (Applied Biosystems). Analysis of gene expression was done in the ABI PRISM 7000 sequence detector with an initial denaturation at 95° C. for 10 minutes followed by 40 PCR cycles, each cycle consisting of 95° C. for 15 seconds and 60° C. for 1 minute, and SYBR Green fluorescence emissions were monitored after each cycle. For each gene, mRNA expression was calculated relative to Tbp (mouse) or ribosomal 18S (human) expression as an internal control.
# To assess the effects of insulin, we directly administered insulin into the cerebral ventricles of STZ-induced diabetic mice by 3 injections of insulin into a catheter placed in the lateral ventricle. […] Food intake was measured immediately before the ICV injection. Four hours after the last injection, blood glucose levels were measured, and the hypothalami collected.
# [5] = system: STZ-diabetic mice; experiment: Food intake after ICV injection in STZ-diabetic mice; type: in vivo, mouse; conditions: insulin ICV injection
# Text: To assess the effects of insulin, we directly administered insulin into the cerebral ventricles of STZ-induced diabetic mice by 3 injections of insulin into a catheter placed in the lateral ventricle. Briefly, seven-week-old C57Bl/6 mice were placed in a stereotactic device under anesthesia, and a 26-gauge guide cannula (Plastics One Inc., Roanoke, Va.) was inserted into the right lateral cerebral ventricle (1.0 mm posterior, 1.0 mm lateral, and 2.0 mm ventral to the bregma). A dummy stylet cannula was inserted into each cannula until used. After a 1 week recovery, mice received a single i.p. injection of STZ to induce diabetes. Twelve days later, the mice received three ICV injections of insulin (3 mU in 2 μL) or the same volume of PBS (9 AM, 7 PM and 9 AM the following day) through an internal cannula using a Hamilton microsyringe. Food intake was measured immediately before the ICV injection. Four hours after the last injection, blood glucose levels were measured, and the hypothalami collected.
# [6] = system: primary mouse cultured cortical neurons and glia; experiment: Insulin stimulation of primary cultured cortical neurons and glia, qPCR of cholesterologenic genes; type: cell-based
# Procedure: as §2
# To dissect the cell type and factors regulating the changes in cholesterol biosynthesis, neuron and glial cells (astrocytes) were isolated and cultured from the cortices of 16-day-old C57Bl/6 mouse embryos and 1-day-old neonates, respectively. Briefly, the cerebral cortex was dissected from 0-1 day old for glia and day 16 embryonic C57Bl/6 mice under aseptic conditions. Large blood vessels were carefully removed under the microscope. […]
compound,measurement,setting,value
N#CC(=C(/N)Sc1ccccc1N)/C(C#N)=C(\N)Sc1ccccc1N [U0126],insulin's effect on Hmgcr induction,[1]; inhibitor given prior to insulin stimulation,partially suppressed
insulin,changes in cholesterologenic genes in hypothalamus of diabetic mice,"[2]; subcutaneous insulin pellets for one week, qPCR",reversed
same,suppression of SREBP-2 pathway in the hypothalamus,"[2]; three ICV injections of insulin (3 mU in 2 μL), 4 hours after last injection",almost completely normalized
same,blood glucose levels,"[3]; three ICV injections of insulin (3 mU), 4 hours after last injection",did not affect blood glucose levels
same,"expression of neuropeptides involved in feeding behavior (Pomc, Agrp, Npy)",[4],partially normalized
same,hyperphagia induced by STZ diabetes (food intake),[5],partly reversed the hyperphagia
same,stimulation of expression of all cholesterologenic genes,"[6]; insulin 10-100 nM, 6 hours, qPCR",30 to 270%
same,cholesterol synthetic gene expression,"[6]; primary cultured glia and neurons, 18 days in vitro, insulin 6 h",induces cholesterol synthetic gene expression
Cn1cc(C2=C(c3ccc(Cl)cc3Cl)C(=O)NC2=O)c2ccccc21 [SB216763],expression of cholesterol synthetic genes,"[1]; GSK3 inhibitor treatment, mimicked insulin's effects",broad increase in expression of cholesterol synthetic genes
"O=C(CCc1ccc(O)cc1)c1c(O)cc(O)cc1O[C@@H]1O[C@H](CO)[C@@H](O)[C@H](O)[C@H]1O [PHZ, phlorizin]",suppression of SREBP-2 and its downstream genes in the hypothalamus,"[2]; PHZ 0.4 g/kg s.c. twice daily for 10 days, qPCR","did not, however, reverse suppression"
same,hyperglycemia (blood glucose),[3]; PHZ 0.4 g/kg s.c. twice daily for 10 days,efficiently normalized hyperglycemia
